Assay results reported in US20250332173A1, “COMPOUNDS AND METHODS FOR MODULATING NUCLEIC ACID SPLICING” (REMIX THERAPEUTICS INC., priority 2021, published 2025).
pIC50: −log10 of the molar value. Where two headings read alike, the source gives them in different places.

Test system: MYB mRNA
Experiment: RT-qPCR splicing assay, MYB canonical junction (CJ) and alternative junction (AJ) mRNA
Format: cell-based, human
Conditions: Homo sapiens; for AC50: increase in MYB alternative junction (AJ) mRNA, read-out: MYB AJ AC50
Method in brief: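 A673 or K562 cells were treated for 24 h at 37 °C with an 11-point 3-fold compound dilution series (top final concentration 10 uM, DMSO ≤0.25%). After lysis, one-step TaqMan RT-qPCR quantified junction transcripts, normalized to PPIA for A673 or to GAPDH/GUSB for K562.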

[1] = Table 5 panel, canonical junction qPCR, compound concentration having 50% response in CJ decrease, read-out: MYB IC50 (decrease in CJ mRNA levels)
[2] = decrease in MYB canonical junction (CJ) mRNA, RT-qPCR, read-out: MYB CJ IC50

Q: Cc1cn2nc(-c3cc(F)c4c(=O)n(C5CCNC6(CC6)C5)cnc4c3)cc(C)c2n1 (stereo not drawn) [Compound 351] was tested. Which pIC50 [1] did it give?
A: > 7.00

Q: And the pIC50 [2]?
A: > 7.00

Q: What about the AC50 (RT-qPCR) of the same molecule?
A: < 100 nM

Q: Which results are given for Cc1cn2cc(-c3ccc4c(=O)n(C5CCNCC5)cnc4c3)cc(Cl)c2n1 [Compound 291]?
A: pIC50 [1]: 6.00 to 7.00; pIC50 [2]: > 7.00; AC50 (RT-qPCR): 100 to 1000 nM

Q: Cc1nc2c(F)cc(-c3ccc4c(=O)n(C5CCNCC5)cnc4c3)cc2s1 [Compound 285] was tested. Which pIC50 [1] did it give?
A: 6.00 to 7.00

Q: What about the pIC50 [2] of the same molecule?
A: 5.00 to 6.00

Q: And the AC50 (RT-qPCR)?
A: 100 to 1000 nM

Q: Which results are given for Cc1cn2cc(-c3cc(F)c4c(=O)n(N5CCNCC5)cnc4c3)cc(F)c2n1 [Compound 340, 5-fluoro-7-{8-fluoro-2-methylimidazo[1,2-a]pyridin-6-yl}-3-(piperazin-1-yl)quinazolin-4-one]?
A: pIC50 [1]: > 7.00; pIC50 [2]: > 7.00; AC50 (RT-qPCR): < 100 nM

Q: CCN1CCC(n2ncc3cc(-c4cc(C)c5nc(C)cn5n4)ccc3c2=O)CC1 [Compound 266] was tested. Which pIC50 [1] did it give?
A: 6.00 to 7.00

Q: And the pIC50 [2]?
A: > 7.00

Q: What about the AC50 (RT-qPCR) of the same molecule?
A: 100 to 1000 nM

Q: How did the pIC50 [1] turn out when Cc1cn2nc(-c3cc(O)c4c(=O)n(C5CCNC5)cnc4c3)cc(C)c2n1 (stereo not drawn) [Compound 362, 7-{2,8-dimethylimidazo[1,2-b]pyridazin-6-yl}-5-hydroxy-3-(pyrrolidin-3-yl)quinazolin-4-one] was run?
A: 5.00 to 6.00

Q: What about the pIC50 [2] of the same molecule?
A: 5.00 to 6.00

Q: And the AC50 (RT-qPCR)?
A: 1000 to 10000 nM

Q: CNc1cc(-c2cc(C)c3nc(C)cn3n2)cc2ncn(C3CCNCC3)c(=O)c12 [Compound 359, 7-{2,8-dimethylimidazo[1,2-b]pyridazin-6-yl}-5-(methylamino)-3-(piperidin-4-yl)quinazolin-4-one] was tested. Which pIC50 [1] did it give?
A: > 7.00

Q: And the pIC50 [2]?
A: 5.00 to 6.00

Q: And the AC50 (RT-qPCR)?
A: < 100 nM

Q: Which results are given for CN1CC=C(c2ccc3c(=O)n(-c4ccc5nn(C)cc5c4)cnc3c2)CC1 [Compound 159]?
A: pIC50 [1]: < 5.00; pIC50 [2]: < 5.00; AC50 (RT-qPCR): > 10000 nM

Q: With CNc1cc(-c2cc(F)c3nc(C)cn3c2)cc2ncn(C3CCNCC3)c(=O)c12 [Compound 358, 7-{8-fluoro-2-methylimidazo[1,2-a]pyridine-6-yl}-5-(methylamino)-3-(piperidin-4-yl)quinazolin-4-one] as the molecule, how does the pIC50 [1] read?
A: 5.00 to 6.00

Q: What about the pIC50 [2] of the same molecule?
A: 5.00 to 6.00

Q: What about the AC50 (RT-qPCR) of the same molecule?
A: 1000 to 10000 nM

Q: How did the pIC50 [1] turn out when COc1cc(-c2cc(F)c3c(=O)n(C4CCNCC4)cnc3c2)cnn1 [Compound 320] was run?
A: < 5.00

Q: What about the pIC50 [2] of the same molecule?
A: < 5.00

Q: And the AC50 (RT-qPCR)?
A: > 10000 nM

Q: How did the pIC50 [1] turn out when Cc1cn2nc(-c3ccc4c(c3)CCN(C3CCN(C)C3)C4=O)cc(C)c2n1 (stereo not drawn) [Compound 282] was run?
A: < 5.00

Q: What about the pIC50 [2] of the same molecule?
A: < 5.00

Q: What about the AC50 (RT-qPCR) of the same molecule?
A: > 10000 nM

Q: With Cc1cn2nc(-c3ccc4c(=O)n(C5CCN(C)CC5)ccc4c3)cc(C)c2n1 [Compound 310] as the molecule, how does the pIC50 [1] read?
A: > 7.00

Q: And the pIC50 [2]?
A: > 7.00

Q: And the AC50 (RT-qPCR)?
A: < 100 nM

Q: How did the pIC50 [1] turn out when Cc1cn2nc(-c3cc(C)c4c(=O)n(C5CCNCC5)cnc4c3)cc(C)c2n1 [Compound 355] was run?
A: > 7.00

Q: And the pIC50 [2]?
A: > 7.00

Q: And the AC50 (RT-qPCR)?
A: < 100 nM

Q: Cc1cn2nc(-c3ccc4c(=O)n([C@@H]5CCN[C@H](C)C5)ncc4c3)cc(C)c2n1 [Compound 272] was tested. Which pIC50 [1] did it give?
A: > 7.00

Q: And the pIC50 [2]?
A: 6.00 to 7.00

Q: What about the AC50 (RT-qPCR) of the same molecule?
A: < 100 nM

Q: How did the pIC50 [1] turn out when Cc1cn2nc(-c3ccc4c(c3)CCN(C3CCNC3)C4=O)cc(C)c2n1 (stereo not drawn) [Compound 269] was run?
A: < 5.00

Q: What about the pIC50 [2] of the same molecule?
A: < 5.00

Q: What about the AC50 (RT-qPCR) of the same molecule?
A: > 10000 nM

Q: Which results are given for Cc1cn2nc(-c3cc(F)c4c(=O)n([C@H]5CCNC6(CC6)C5)cnc4c3)cc(C)c2n1 (single isomer, unassigned) [Compound 357]?
A: pIC50 [1]: > 7.00; pIC50 [2]: > 7.00; AC50 (RT-qPCR): < 100 nM

Q: What does the source list for Cc1cn2nc(-c3cc(F)c4c(=O)n(C5CCNCC5)cnc4c3)cc2c(C)n1 [Compound 318]?
A: pIC50 [1]: > 7.00; pIC50 [2]: > 7.00; AC50 (RT-qPCR): < 100 nM

Q: How did the pIC50 [1] turn out when Cc1cc(-c2cnc3c(=O)n(C4CCNCC4)cnc3c2)cc2cn(C)nc12 [Compound 311] was run?
A: 5.00 to 6.00

Q: What about the pIC50 [2] of the same molecule?
A: 5.00 to 6.00

Q: What about the AC50 (RT-qPCR) of the same molecule?
A: 1000 to 10000 nM

Q: What does the source list for Cc1cn2nc(-c3ccc4c(=O)n(C5CCNCC5)cnc4c3)cc2c(C)n1 [Compound 298]?
A: pIC50 [1]: 6.00 to 7.00; pIC50 [2]: 6.00 to 7.00; AC50 (RT-qPCR): 100 to 1000 nM
